In the oligonucleotide strings, read from the 5' end, every base follows the letter of its sugar. An asterisk marks phosphorothioate; unmarked linkages are phosphodiester. Other units and linkages are bracketed, terminal groups are in braces. A string of capitals states the bases alone. e = 2'-O-(2-methoxyethyl) (MOE); [5mC] = 5-methylcytosine
Assays:
[1] = test system: E-selectin mRNA (Type III polyadenylation signal and site); experiment: E-selectin transcript forms by Northern blot in TNF-α-induced HUVEC; type: cell-based, human; conditions: increasing oligonucleotide dose, TNF-α 2 hours
Procedure: (§1) HUVEC (Clonetics, San Diego, Calif.) were cultivated in endothelial basal media supplemented with 10% fetal bovine serum. Cells were treated with oligonucleotides as described previously (Chiang, 1991, J. Biol. Chem. 27:18162-18171; Vickers, 2000, Nucleic Acids Res. 28:1340-1347). Briefly, cells were incubated with a mixture of Lipofectin (Gibco BRL, Gaithersburg, Md.) and oligonucleotide for 4 hours. Cells were incubated for 2-24 hours, then treated with 5 ng/ml TNF-α for 2-3 hours to induce expression of E-selectin. Cells were then washed extensively with phosphate buffered saline (PBS), fresh complete media was added and cells were incubated at 37° C. until harvested.
(§2) Total RNA was harvested from HUVEC at various times following TNF-α induction using a ToTALLY RNA kit (Ambion) according to the manufacturer's protocol). For Northern blots, RNA was separated on a 1.2% agarose gel containing 1.1% formaldehyde, then transferred to nylon membranes. Blots were hybridized with [^32P]-dCTP random prime labeled cDNA probes specific for E-selectin or […] (G3PDH) for 2 hours in Rapid-hyb solution (Amersham). Blots were washed with 2×SSC containing 0.1% SDS at room temperature, followed by 0.1×SSC containing 0.1% SDS at 60° C. Quantitation of RNA expression was performed using a Molecular Dynamics PhosphorImager. Anchored reverse transcriptase polymerase chain reaction (RT/PCR) was performed essentially as described by Chu et al. (supra.).
HUVEC were treated with 2′-O-methoxyethyl (MOE)/phosphorothioate antisense oligonucleotides directed to the Type III polyadenylation signal and site (Table 1A) as described above. After about 24 hours, cells were treated with TNF-α to induce E-selectin expression. Cells were harvested after 2 hours and RNA was isolated. E-selectin expression was analyzed by Northern blotting. […] With increasing oligonucleotide dose, the longer Type III message decreased while a shorter message increased (FIG. 2). This shorter message most likely represents a combination of Type I and II messages, because the Type II message is just 158 bases longer than the Type I message, and the difference in sizes cannot be resolved on the gel which was used.

E-selectin mRNA [2] = experiment: Stability of E-selectin messages after TNF-α removal (Northern blot, HUVEC); type: cell-based, human; conditions: 200 nM
Procedure: as §1
as §2, with “Anchored reverse transcriptase polymerase chain reaction (RT/PCR) was performed essentially as described by Chu et al. (supra.).” left out

E-selectin = E-selectin cell surface protein expression by flow cytometry in HUVEC; type: cell-based, human; conditions: for time of maximal E-selectin protein expression: after addition of TNF-α
Procedure: as §1
Following oligonucleotide treatment, cells were detached with D-PBS (without calcium and magnesium) supplemented with 4 mM EDTA. Cells were centrifuged at 5,000 rpm for 1 minute and washed in 2% bovine serum albumin (BSA), 0.2% sodium azide in D-PBS at 4° C. E-selectin-phycoerythrin antibody (Ancell) was then added at 1:100 in 0.1 ml of the above buffer, and incubated for 30 min at 4° C. in the dark. Cells were washed again as above and resuspended in 0.3 ml of PBS buffer with 0.5% formaldehyde. Cells were analyzed for E-selectin expression on a FACScan (Becton-Dickinson). Results are expressed as percentage of control expression based upon the mean fluorescence intensity.
The treated cells were stimulated with TNF-α for 2 hours, then analyzed for E-selectin protein expression by flow cytometry. […] Results at the protein level are not as dramatic as at the RNA level due to the fact that the Type III message remains the predominant RNA species present (FIG. 2). Any change in protein stability resulting from the presence of the type I/II message would likely be partially masked by the more abundant Type III RNA.

E-selectin mRNA [3] = experiment: Non-quantitative RT-PCR of E-selectin Type I, II and III transcripts in HUVEC; type: cell-based, human; conditions: relative to untreated cells, 200 nM stated for ISIS 106344
Procedure: as §2
To determine if processing could be controlled more specifically, oligonucleotides were also designed to the upstream polyadenylation signals. Non-quantitative RT-PCR was used to distinguish among the three forms of the message. In the absence of oligonucleotide, all three types of transcript were detected. […] This difference may be due to variation in the efficiency of PCR amplification on the varying length products, with the shorter Type I and II messages being more efficiently amplified than the Type III product. […] To determine if the effects of ISIS 106344 were unique, antisense oligonucleotides were designed to the Type I and Type II polyadenylation sites.
To evaluate whether treatment with two oligonucleotides would result in the production of a single species of E-selectin message, HUVEC were treated with ISIS 106344, and either ISIS 135568 or ISIS 135570 (150 nM each). […] Cells were also treated with both ISIS 135568 and ISIS 135570.

[4] = test system: Human IL-5 receptorα membrane form mRNA; experiment: Human IL-5 receptorα membrane form mRNA expression (18 hr); type: cell-based; design: % INHIB'N, human IL-5 receptorα membrane form mRNA / % of CONTROL, human IL-5 receptorα membrane form mRNA: concentration or dose not given beside the values; conditions: 18 hr
Source text: mRNA transcripts encoding the membrane form of the human IL-5 receptorα contain exons 1-10 and 12-14. Exon 11 is spliced out. It is, therefore, possible to target sequences in exons 1-10 which are common to both soluble and membrane forms of the receptor, or to selectively target sequences only present in the membrane form (exons 12-14). Oligonucleotides were also designed to target various intron/exon boundaries downstream of exon 11, with the intention of preventing successful splicing out of exon 11 and thus redirecting splice products away from the membrane form and in favor of the soluble form of IL-5 receptorα.
(§3) A series of oligonucleotides were designed to target various splice sites or (intron-exon boundaries) in the IL-5 receptor mRNA.

[5] = test system: Human IL-5 receptorα soluble form mRNA; experiment: Human IL-5 receptorα soluble form transcript, Northern blot; type: cell-based; conditions: Northern blot analysis
Source text: ISIS 16746, 16748 and 16755 inhibited IL-5 receptor mRNA expression by over 50% and are therefore preferred in this assay. […] Thus it is believed that ISIS 16755 redirects splicing in favor of the membrane form, as is consistent with data obtained with other non-RNAse H (e.g., uniform 2′-methoxyethoxy) oligonucleotides targeted to splice sites.

Human IL-5 receptorα = Human IL-5 receptorα protein expression on the cell surface (36 hr), TF-1 cells; type: cell-based; design: % INHIB, human IL-5 receptorα protein on the cell surface / % of CONTROL, human IL-5 receptorα protein on the cell surface: concentration or dose not given beside the values; conditions: 36 hr
Source text: as §3
ISIS 16746, 16748, 16755 and 16758 inhibited human IL-5 receptorα protein by over 50% in this assay and are therefore preferred. ISIS 16758 and 16755 were chosen for further study.

human bcl-x mRNA [6] = experiment: Total bcl-x mRNA and bcl-xs/bcl-xl ratio in A549 cells, RNase protection; type: cell-based
Source text: In accordance with the present invention, a series of oligonucleotides were designed to target different regions of human bcl-x RNA, using published sequences (Boise, L. H., et al., 1993, Cell 74, 597-608; Genbank Accession No. L20121, locus name “HSBCLXL,” incorporated herein as SEQ ID NO: 39). Antisense oligonucleotides were designed to target areas of exon 1 and exon 2 of human bcl-x, particularly around the exon 1/exon 2 splice site and in sequence regions present in bcl-xl but not in bcl-xs. All backbone linkages are phosphorothioates; All 2′MOE cytosines are 5-methylcytosines.
Oligonucleotides were evaluated for their respective effects on bcl-xs and bcl-xl3 mRNA levels in A549 cells along with total bcl-x mRNA levels, using the RIBOQUANT™ RNase protection kit (Pharmingen, San Diego Calif.). All assays were performed according to manufacturer's protocols.
A “walk” was done in this region with 20mer 2′-MOE phosphorothioate oligonucleotides targeted to sequences whose 5′ ends were 24, 26, 29, 31, 33, 37, 39, 41, 43, 44, 45 and 47 bases upstream of the splice site. These oligonucleotides were screened as before at a dose of 200 nM oligonucleotide for effect on short and long bcl-x transcripts.

bax mRNA = bax mRNA by RNAse protection assay; type: cell-based
Procedure: ISIS 22783 was tested by RNAse protection assay for ability to inhibit bax, another apoptotic gene. It had no effect on bax mRNA levels.

murine bcl-x mRNA [7] = experiment: bcl-xs mRNA induction in mouse cell lines bEND, AML12 and Hepa; type: cell-based
Source text: (§4) ISIS 22783 is also fully complementary to the murine bcl-x mRNA which makes it useful for animal studies.

murine bcl-x mRNA [8] = experiment: bcl-xs mRNA expression in vivo in mouse liver; conditions: preliminary experiments
Source text: as §4

A549 cells [9] = experiment: Sensitization of A549 cells to UV-induced cell death, propidium iodide staining; type: cell-based, human; conditions: 100 nM oligo
Procedure: A549 cells were treated with 100 nM ISIS 22783 or the 5-mismatch ISIS 26080 and exposed to ultraviolet (UV) radiation. The percent apoptotic cells was quantitated by propidium iodide staining according to standard methods.

A549 cells [10] = experiment: Sensitization of A549 cells to cisplatinum-induced cell death, propidium iodide staining; type: cell-based, human; conditions: 100 nM oligo
Procedure: A549 cells were treated with 100 nM ISIS 22783 or the 5-mismatch ISIS 26080 and cisplatinum at various doses. The percent apoptotic cells was quantitated by propidium iodide staining according to standard methods.

A549 cells [11] = experiment: Sensitization of A549 cells to taxol-induced cell death, propidium iodide staining; type: cell-based, human; conditions: 100 nM oligo
Procedure: A549 cells were treated with 100 nM ISIS 22783 or the 5-mismatch ISIS 26080 and taxol at various doses. The percent apoptotic cells was quantitated by propidium iodide staining according to standard methods.

human bcl-x mRNA [12] = experiment: Total bcl-x mRNA and bcl-xs/bcl-xl ratio in A549 cells, RNase protection; type: cell-based; remark: listed apart in the source

## ISIS 106344: CATAAGCACATTTATTGTCA, SEQ ID 66; uniformly 2′-MOE phosphorothioate; E-selectin Type III poly(A) signal (all 2'-MOE, all phosphorothioate, methylation of C not given here)
[1]
  longer Type III E-selectin message (Northern blot): decreased
  shorter E-selectin message (Type I and II) (Northern blot): increased
E-selectin mRNA [2]
  stability of the shorter (type I/II) messages following TNF-α removal: More than half of the shorter messages remained five hours
E-selectin mRNA [2]; message printed as type II
  time following TNF-α removal at which about one half of the type II message remained: ~2.5 h
E-selectin; TNF-α 2 hours, versus control oligonucleotide
  duration of E-selectin protein expression: sustained expression of E-selectin protein
E-selectin
  time of maximal E-selectin protein expression: four hours after addition of TNF-α
E-selectin mRNA [3]
  Type I E-selectin message (RT-PCR): increased
  Type II E-selectin message (RT-PCR): increased
  Type III E-selectin message (RT-PCR): decrease

## ISIS 16755: GAACACTTACATTTTACAGA, SEQ ID 34; E12/I12; 2′-MOE pattern not visible (antisense eG*eA*eA*e[5mC]*eA*e[5mC]*eT*eT*eA*e[5mC]*eA*eT*eT*eT*eT*eA*e[5mC]*eA*eG*eA)
[4]
  % INHIB'N, human IL-5 receptorα membrane form mRNA: over 50%
[5]
  inhibition of the soluble form transcript: without significantly inhibiting the soluble form
Human IL-5 receptorα
  % INHIB, human IL-5 receptorα protein on the cell surface: over 50%

## ISIS 106346: CATCAGAACTTATATAGTCA, SEQ ID 68; 106344 mismatch control (all 2'-MOE, all phosphorothioate, methylation of C not given here) [reference compound]
E-selectin
  time of maximal E-selectin protein expression: four hours after addition of TNF-α

## ISIS 22783: CTGGATCCAAGGCTCTAGGT, SEQ ID 44; fully 2′-MOE, full-phosphorothioate; bcl-xl Exon 1L 664-683 (e[5mC]*eT*eG*eG*eA*eT*e[5mC]*e[5mC]*eA*eA*eG*eG*e[5mC]*eT*e[5mC]*eT*eA*eG*eG*eT)
Human bcl-x mRNA [6]; A549 cells
  time after treatment at which bcl-xs induction with concurrent bcl-xL reduction begins: 2 to 4 h
Human bcl-x mRNA [6]; A549 cells (Table 13)
  % CRTL total bcl-x: without reducing the total bcl-x mRNA level
Human bcl-x mRNA [6]; A549 cells, no oligo 17.56
  bcl-xs/bcl-xl (%): 293%
Human bcl-x mRNA [6]; Oligo Concentration 200 (unit not given)
  approx. ratio of bcl-xs/bcl-xl: ~8.5
Bax mRNA
  effect on bax mRNA levels: no effect
Murine bcl-x mRNA [7]
  induction of bcl-xs mRNA: induction of bcl-xs mRNA
Murine bcl-x mRNA [8]
  bcl-xs mRNA expression in mouse liver: slight induction of bcl-xs mRNA expression
A549 cells [9]; UV 0 mJ/M^2
  % Apoptotic cells (approx): ~2%
A549 cells [9]; UV 50 mJ/M^2
  % Apoptotic cells (approx): ~4%
A549 cells [9]; UV 100 mJ/M^2
  % Apoptotic cells (approx): ~33%
A549 cells [9]; UV 200 mJ/M^2
  % Apoptotic cells (approx): ~27%
A549 cells [10]; cisplatinum 0 μg/ml
  % Apoptotic cells (approx): ~3%
A549 cells [10]; cisplatinum 1 μg/ml
  % Apoptotic cells (approx): ~6%
A549 cells [10]; cisplatinum 10 μg/ml
  % Apoptotic cells (approx): ~13%
A549 cells [10]; cisplatinum 50 μg/ml
  % Apoptotic cells (approx): ~27%
A549 cells [11]; taxol 0 μg/ml
  % Apoptotic cells (approx): ~8%
A549 cells [11]; taxol 5 μg/ml
  % Apoptotic cells (approx): ~8%
A549 cells [11]; taxol 10 μg/ml
  % Apoptotic cells (approx): ~15%
A549 cells [11]; taxol 30 μg/ml
  % Apoptotic cells (approx): ~26%
Human bcl-x mRNA [12]; Oligo Concentration 100 (unit not given)
  approx. ratio of bcl-xs/bcl-xl: ~4.5
Human bcl-x mRNA [12]; Oligo Concentration 400 (unit not given)
  approx. ratio of bcl-xs/bcl-xl: ~18
